Data published in patent publication US20220073496A1, “NOVEL QUINOLINE DERIVATIVE INHIBITOR” (Nanjing Transthera Biosciences Co., Ltd., priority 2018, published 2022).

Tests used:
TrkA (h) = molecular target: T1, TrkA (h) (Homo sapiens, UniProt P04629); test: Enzymatic activity test, TrkA (h); format: biochemical; conditions: 10 μM [γ-33P]-ATP, 40 minutes, room temperature
T1 construct: purchased
Protocol: (§1) Assay 4: Enzymatic Activity Test of the Compound of the Present Invention
(§2) Test substances: the compounds of the present invention, wherein the structures and preparations thereof were as described above.
(§3) Preparation of the Compound Stock Solution
(§4) The compound was dissolved in 100% DMSO to prepare a stock solution with a maximum concentration of 500 μM.
(§5) Preparation of the Compound Working Solution
(§6) The compound stock solution was diluted to final concentrations of 500, 150, 50, 15. 5, 1.5, 0.5, 0.15 and 0.05 μM to become the compound working solutions (50×).
(§7) Preparation of Different Enzyme Reaction Solutions
The TrkA (h) enzyme was dissolved in 8 mM MOPS (pH 7.0), 0.2 mM EDTA, and 250 μM KKKSPGEYVNIEFG to prepare an enzyme solution having a final concentration of 1.7 nM. The enzymatic reaction was activated by using 10 mM magnesium acetate and 10 μM [γ-^33P]-ATP to form an Mg/ATP mixed solution.
(§8) In a 384-well plate, the compound working solution was added to final concentrations of 10000, 3000, 1000, 300, 100, 30, 10, 3, and 1 nM. Then different enzyme reaction solutions prepared according to the above conditions were added. The incubation was carried out for 40 minutes at room temperature. The test was terminated by the addition of a 0.5% phosphoric acid solution. 10 μL of the reaction solution was taken and dropped to the P30 filter paper. The filter paper was washed 4 times with 0.425% phosphoric acid solution and once with methanol, and then placed on a scintillation counter. The […] IC50 values were calculated using GraphPad 5.0 software.

[1] = Stability in liver microsome of mice; format: in vitro ADME; conditions: Mouse liver microsome 0.5 mg protein/mL, compound 1 μM, 37° C.; for half-life at 1 μM / microsomal CLint at 1 μM: liver microsomes
Protocol: Assay 1: Stability assessment of the compounds of the present invention in liver microsome of mice and dogs
as §2
The composition of the incubation system:
Preparation of Test Substances:
An appropriate amount of the compound was accurately weighed and dissolved in DMSO to prepare a 5.0 mM stock solution. The 5.0 mM stock solution was diluted to 1.0 mM with DMSO, and finally diluted with water to a 10 μM test substance working solution for use (the DMSO content in the reaction system was 0.1%).
(1) The liver microsome (20 mg protein/mL) was taken out from the −80° C. refrigerator, pre-incubated at 37° C. with a water-bathing constant temperature vibrator for 3 minutes, and melted for use.
(2) A mixed solution of the incubation system (excluding compounds and β-NADPH) according to the above “composition of the incubation system” for the assay was prepared, and pre-incubated at 37° C. with a water-bathing constant temperature vibrator for 2 minutes.
(3) Control group (excluding β-NADPH): 30 μL of water and 30 μL of compound working solution (10 μM) were added to 240 μL of the mixed solution of the incubation system of step (2), and vortexed for 30 seconds to mix well. The total reaction volume was 300 μL. A duplicate sample was prepared. The sample was incubated at 37° C. with a water-bathing constant temperature vibrator. The timekeeping began and the sampling time points were set at 0 minute and 60 minutes.
(4) Sample group: 70 μL of β-NADPH solution (10 mM) and 70 μL of compound working solution (10 μM) were added to 560 μL of the mixed solution of step (2). The total reaction volume was 700 μL. The resulting mixture was vortexed for 30 seconds to mix well. A duplicate sample was prepared. The sample was incubated at 37° C. with a water-bathing constant temperature vibrator. The timekeeping began and the sampling time points were set at 0 minute, 5 minutes, 10 minutes, 20 minutes, 30 minutes, and 60 minutes after timekeeping.
(5) After vortexing for 3 minutes, the sample was centrifuged at 4000 rpm for 10 minutes.
(6) 50 μL of the supernatant was taken and 150 μL of water was added. The resulting mixture was vortexed to mix well, and analyzed by LC/MS/MS.
The half-life (t1/2) and clearance rate (Cl) were calculated using the following first-order kinetic formula:
Vd=1/protein content in liver microsome
Note: k was the slope of the logarithm of the remaining amount of the compound versus time, and Vd was the apparent distribution volume.

TrkB (h) = molecular target: T2, TrkB (h) (Homo sapiens, UniProt Q16620); test: Enzymatic activity test, TrkB (h); format: biochemical; conditions: 10 μM [γ-33P]-ATP, 40 minutes, room temperature
T2 construct: purchased
T2 sequence (Q16620 32-822): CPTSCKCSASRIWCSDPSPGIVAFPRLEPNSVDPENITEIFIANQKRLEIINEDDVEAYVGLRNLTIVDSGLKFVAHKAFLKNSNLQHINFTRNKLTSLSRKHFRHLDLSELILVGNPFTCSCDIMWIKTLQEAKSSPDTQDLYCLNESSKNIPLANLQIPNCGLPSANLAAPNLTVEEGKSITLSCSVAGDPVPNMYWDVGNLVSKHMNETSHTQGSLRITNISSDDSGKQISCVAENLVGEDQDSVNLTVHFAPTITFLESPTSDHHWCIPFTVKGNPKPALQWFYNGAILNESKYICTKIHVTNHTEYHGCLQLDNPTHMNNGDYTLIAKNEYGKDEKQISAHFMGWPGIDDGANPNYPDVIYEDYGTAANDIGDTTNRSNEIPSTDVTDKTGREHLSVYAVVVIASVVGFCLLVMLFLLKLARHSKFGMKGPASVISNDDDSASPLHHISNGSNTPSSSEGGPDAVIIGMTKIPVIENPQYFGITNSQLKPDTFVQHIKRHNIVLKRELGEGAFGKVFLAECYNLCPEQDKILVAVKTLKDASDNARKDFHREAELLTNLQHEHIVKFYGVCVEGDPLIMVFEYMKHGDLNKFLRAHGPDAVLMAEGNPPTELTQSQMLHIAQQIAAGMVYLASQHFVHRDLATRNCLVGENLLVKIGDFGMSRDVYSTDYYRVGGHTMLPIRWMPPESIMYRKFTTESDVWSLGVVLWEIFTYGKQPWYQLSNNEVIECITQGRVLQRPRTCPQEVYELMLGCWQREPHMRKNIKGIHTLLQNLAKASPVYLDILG
Protocol: as §1, §2, §3, §4, §5, §6, §7
The TrkB (h) enzyme was dissolved in 8 mM MOPS (pH 7.0), 0.2 mM EDTA, and 0.1 mg/mL poly(Glu, Tyr) 4:1 to prepare an enzyme solution having a final concentration of 3.1 nM. The enzymatic reaction was activated by using 10 mM magnesium acetate and 10 μM [γ-^33P]-ATP to form an Mg/ATP mixed solution,
as §8

T1 sequence (P04629 33-796): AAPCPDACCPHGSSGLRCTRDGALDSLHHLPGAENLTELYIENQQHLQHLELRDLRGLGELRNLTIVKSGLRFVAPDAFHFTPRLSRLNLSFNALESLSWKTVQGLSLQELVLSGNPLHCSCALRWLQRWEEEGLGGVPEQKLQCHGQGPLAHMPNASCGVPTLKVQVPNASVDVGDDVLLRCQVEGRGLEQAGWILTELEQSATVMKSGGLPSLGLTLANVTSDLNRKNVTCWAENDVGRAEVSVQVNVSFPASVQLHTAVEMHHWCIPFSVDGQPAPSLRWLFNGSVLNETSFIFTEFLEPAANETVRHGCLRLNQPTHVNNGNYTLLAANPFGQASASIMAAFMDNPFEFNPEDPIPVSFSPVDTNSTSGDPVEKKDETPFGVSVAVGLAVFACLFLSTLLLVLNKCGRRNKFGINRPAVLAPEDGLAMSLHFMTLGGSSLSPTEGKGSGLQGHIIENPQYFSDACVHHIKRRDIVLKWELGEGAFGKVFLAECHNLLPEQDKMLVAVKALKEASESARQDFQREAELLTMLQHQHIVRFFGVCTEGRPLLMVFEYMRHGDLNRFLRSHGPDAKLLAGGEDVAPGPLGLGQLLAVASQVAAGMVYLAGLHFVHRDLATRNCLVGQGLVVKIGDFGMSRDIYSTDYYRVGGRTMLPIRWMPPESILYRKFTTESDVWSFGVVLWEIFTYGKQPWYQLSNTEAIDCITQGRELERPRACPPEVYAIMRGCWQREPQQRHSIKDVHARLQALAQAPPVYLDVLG

Compound	IC50 (TrkA (h))	t1/2 [1]	half-life at 1 μM [1]	microsomal CLint at 1 μM [1]	IC50 (TrkB (h))
COc1cc2nccc(Oc3ccc(NC(=O)c4cn(C(C)C)nc(-c5ccc(F)cc5)c4=O)nc3)c2cc1OC [Compound 41, N-(5-((6,7-dimethoxyquinolin-4-yl)oxy)pyridin-2-yl)-6-(4-fluorophenyl)-2-isopropyl-5-oxo-2,5-dihydropyridazine-4-carboxamide]	5 nM	–	–	–	–
COc1cc2nccc(Oc3ccc(NC(=O)c4cn(C5CC5)nc(-c5ccc(F)cc5)c4=O)nc3)c2cc1OC [Compound 42, 2-cyclopropyl-N-(5--((6,7-dimethoxyquinolin-4-yl)oxy)pyridin-2-yl)-6-(4-fluorophenyl)-5-oxo-2,5-dihydropyridazine-4-carboxamide]	–	→∞	–	–	–
COc1cc2nccc(Oc3cnc(NC(=O)c4cn(C5CC5)nc(-c5ccc(F)cc5)c4=O)nc3)c2cc1OC [Compound 45, 2-cyclopropyl-N-(5-((6,7-dimethoxyquinolin-4-yl)oxy)pyrimidine-2-yl)-6-(4-fluorophenyl)-5-oxo-2,5-dihydropyridazine-4-carboxamide]	–	–	3.3 h	7 µL/min/mg	–
COc1cc2nccc(Oc3cnc(NC(=O)c4cn(C(C)C)cc(-c5ccc(F)cc5)c4=O)nc3)c2cc1OC [Compound 20, N-(5-((6,7-dimethoxyquinolin-4-y)oxy)pyrimidine-2-yl)-5-(4-fluorophenyl)-1-isopropyl-4-oxo-1,4-dihydropyridin-3-carboxamide]	–	–	5.5 h	4.2 µL/min/mg	–
COc1cc2nccc(Oc3ccc(NC(=O)c4nn(C(C)C)cc(-c5ccc(F)cc5)c4=O)cn3)c2cc1OC [Compound 29, N-(6-((6,7-dimethoxyquinolin-4-yl)oxy)pyridin-3-yl)-1-isopropyl-4-oxo-5-para-fluorophenyl-1,4-dihydropyridazine-3-carboxamide]	–	–	3.22 h	7.2 µL/min/mg	–
COc1cc2nccc(Oc3ccc(NC(=O)c4cn(C5CC5)cc(-c5ccc(F)cc5)c4=O)nc3)c2cc1OC [Compound 30, N-(5-((6,7-dimethoxyquinolin-4-yl)oxy)pyridin-2-yl)-1-cyclopropyl-4-oxo-5-para-fluorophenyl-1,4-hydropyridin-3-carboxamide]	–	–	0.888 h	26 µL/min/mg	–
COc1cc2nccc(Oc3ccc(NC(=O)c4cn(C(C)C)cc(-c5ccc(F)cc5)c4=O)nc3)c2cc1OC [Compound 14, N-(5-((6,7-dimethoxyquinolin-4-yl)oxy)pyridin-2-yl)-5-(4-fluorophenyl)-1-isopropyl-4-oxo-1,4-dihydropyridin-3-carboxamide]	–	–	3.12 h	7.4 µL/min/mg	–
COc1cc2nccc(Oc3ccc(NC(=O)c4nn(C5CC5)cc(-c5ccc(F)cc5)c4=O)cn3)c2cc1OC [Compound 36]	2 nM	–	5.02 h	4.6 µL/min/mg	4 nM
COc1cc2nccc(Oc3cnc(NC(=O)c4nn(C(C)C)cc(-c5ccc(F)cc5)c4=O)nc3)c2cc1OC [Compound 16, N-(5-((6,7-dimethoxyquinolin-4-yl)oxy)pyrimidine-2-yl)-5-(4-fluorophenyl)-1-isopropyl-4-oxo-1,4-dihydropyridazine-3-carboxamide]	–	–	1.63 h	14.2 µL/min/mg	–
COc1cc2nccc(Oc3ncc(NC(=O)c4nn(C5CC5)cc(-c5ccc(F)cc5)c4=O)cn3)c2cc1OC [Compound 37, 1-cyclopropyl-N-(2-((6,7-dimethoxyquinolin-4-yl)oxy)pyrimidine-5-yl)-5-para-fluorophenyl-4-oxo-1,4-dihydropyridazine-3-carboxamide]	7 nM	–	8.88 h	2.6 µL/min/mg	6 nM
COc1cc2nccc(Oc3cnc(NC(=O)c4cn(C5CC5)cc(-c5ccc(F)cc5)c4=O)nc3)c2cc1OC [Compound 32, 1-cyclopropyl-N-(5-((6,7-dimethoxyquinolin-4-yl)oxy)pyrimidine-2-yl)-5-(4-fluorophenyl)-4-oxo-1,4-dihydropyridin-3-carboxamide]	–	–	4.13 h	5.6 µL/min/mg	–
COc1cc2nccc(Oc3ccc(NC(=O)c4nn(C5CC5)cc(-c5ccc(C)cc5)c4=O)nc3)c2cc1OC [Compound 46, 1-cyclopropyl-N-(5-((6,7-dimethoxyquinolin-4-yl)oxy)pyridin-2-yl)-4-oxo-5-p-tolyl-1,4-dihydropyridazine-3-carboxamide]	–	→∞	–	–	–
COc1cc2nccc(Oc3ccc(NC(=O)c4cn(C(C)C)cc(-c5ccc(C)cc5)c4=O)nc3)c2cc1OC [Compound 1, N-(5-((6,7-dimethoxyquinolin-4-yl)oxy)pyridin-2-yl)-1-isopropyl-4-oxo-5-p-tolyl-1,4-dihydropyridin-3-carboxamide]	–	–	1.27 h	18.2 µL/min/mg	–
COc1cc2nccc(Oc3ccc(NC(=O)c4cn(C5CC5)nc(-c5ccc(F)cc5)c4=O)cn3)c2cc1OC [Compound 43, 2-cyclopropyl-N-(6-((6,7-dimethoxyquinolin-4-yl)oxy)pyridin-3-yl)-6-para-fluorophenyl-5-oxo-2,5-dihydropyridazine-4-carboxamide]	–	–	10.5 h	2.2 µL/min/mg	–
